{
  "source": "patent US8680076B2",
  "about": "“Methods of treatment, improvement and prevention using haloaryl substituted aminopurines” (Signal Pharmaceuticals, LLC, priority 2010, dated 2014)",
  "format_in_all_cases": "in vivo",
  "key": {"CD-IGS rats": {"system": "CD-IGS rats", "experiment": "Rat model of excisional wound healing", "settings": "0.5 mg/kg qd orally", "procedure": "Male CD-IGS rats (Strain code 001; n=32-52 per experiment) were obtained from Charles River Laboratories at a body weight of 175-195 g. Rats were housed in regular shoebox cages and allowed to become acclimated for a minimum of 1 week. Rats were fed Harlan Teklad (No. 7001) 4% mouse/rat diet and water ad libitum and were maintained on a 12-hour light/dark cycle.\nSuspensions of Compound JNKi-1 were prepared in aqueous 0.5% CMC and 0.25% Tween-80. The formulations were homogenized using a TEFLON® pestle and mortar (Potter-Elvehjem tissue grinder). Vehicle (aqueous solution of 0.5% carboxymethylcellulose, and 0.25% Tween-80) and test article compounds were dosed at a volume of 5 mL/kg. Groups of rats (n=4-8/group) were dosed orally with vehicle, Dexamethasone (0.5 mg/kg) or Compound JNKi-1 (10 mg/kg, 30 mg/kg or 60 mg/kg) daily throughout the study starting 4 days prior to the procedure and continuing for up to […]. Compound JNKi-1 treated groups and the respective vehicle control group were dosed twice daily (bid) with an 8 hr separation between the doses. Dexamethasone treated animals and the respective vehicle control group were dosed once daily (qd) for the duration of the study.\nRats were anesthetized by inhaled isoflurane and the dorsal area was shaved and swabbed with 70% alcohol. Two points were marked 5.5 and 8.5 cm from the base of the skull along the midline. Four further points were marked 1 cm at either side of the midline, two at each of the marked points. These delineated the centers of four excisional wounds. The biopsy punch (6 mm diameter) was aligned vertically over the center of a mark and the epidermis, dermis and panniculus carnosus pierced by applying pressure and twisting at the same time. The skin plug was then removed. This was repeated for the remaining wounds (FIG. 15). The animal was then allowed to recover. All animals were housed singly during the experiment. Rats were monitored twice a day for the first 24 hours following the procedure and then daily until the end of the study. Body weights were recorded two or three times per week. Animals were sacrificed via CO2 asphyxiation at various time-points (day 1, 5, 10 or 14) following wounding.\nEach wound size was measured using an electronic digital caliper and the percent of wound remaining open was calculated relative to the initial wound size recorded on day 0 (day of wounding procedure). Four values were averaged for each animal (four wounds on each rat). Measurements were taken at different time-points throughout the study.\nWounds and 2 mm of surrounding tissue were excised using an 8 mm biopsy punch. Wounds were harvested on days 1, 5, 10 and 14 following the procedure. Tissues were fixed in neutral buffered formalin for 3 h then transferred to 100% ethanol. Tissues were paraffin-embedded and four μm cross sections were cut and mounted on poly-lysine slides and stored in slide boxes at room temperature.\nOne slide for each specimen was stained for H&E to assess granulation-tissue formation and re-epithelialization of the wound gap.\nSamples collected on day 10 and 14 were stained with Trichrome Stain (Masson) Kit (Sigma, HT15) to evaluate collagen deposition and remodeling.\nTissue sections were deparaffinized and hydrated to deionized (DI) water. Sections were incubated in preheated Bouin' Solution (Sigma, HT10-132) at 56° C. overnight and then thoroughly rinsed in tap water. Sections were stained in Weigert's Iron Hematoxylin solution (Sigma, HT10-79) for 15 min, washed, and counterstained with Biebrich Scarlet Acid Fuchsin solution. After washing, sections were incubated with Phosphotungstic-Phosphomolybdic acid solution for 15 min and then stained with Aniline Blue solution. Sections were dehydrated and cleared in xylene.\nWound healing was evaluated on day 10 and day 14 after the procedure. H&E sections were scored for re-epithelialization using the following criteria: […]"}, "Tsk-1 mice": {"system": "Tsk-1 mice", "experiment": "Tight skin-1 (Tsk-1) mouse model of systemic sclerosis", "settings": "50 mg/kg/day IP, 6 weeks", "procedure": "The antifibrotic effects of the JNK inhibitor Compound JNKi-1 were tested in a murine tight skin-1 (Tsk-1) model of systemic sclerosis. In this model, a dominant mutation in the fibrillin 1 gene (Fbn1^Tsk+/−) leads to a systemic sclerosis-like disease with inflammatory infiltrates and massive fibrosis of the skin (Akhmetshina A, Venalis P, Dees C, Busch N, Zwerina J, Schett G, et al., Treatment with imatinib prevents fibrosis in different preclinical models of systemic sclerosis and induces regression of established fibrosis, Arthritis Rheum. 2009; 60(1):219-24).\nMale and female TSK-1 mice were used. Mice were fed a standard diet with water ad libitum. The room temperature was kept constant at 22° C. with a humidity of 60%.\nCompound JNKi-1 was dissolved in 0.5% carboxymethylcellulose (CMC)/0.25% Tween 80 in water. As vehicle control a solution of 0.5% CMC/0.25% Tween 80 in water was used. Imatinib mesylate was dissolved in 0.9% NaCl at a concentration of 50 mg/kg/day in a total volume of 100 μL.\nGroups of Tsk-1 mice (n=4/sex/group) were assigned to one of five treatment groups: • Untreated wildtype (Fbn1^Tsk−/−) group received 0.5% CMC/0.25% Tween 80 in water orally (PO) twice daily (BID). • Untreated Fbn1Tsk+/− mice received 0.5% CMC/0.25% Tween 80 in water orally BID. • Compound JNKi-1-treated Fbn1^Tsk+/− received 50 mg/kg orally BID. • Compound JNKi-1-treated Fbn1^Tsk+/− received 150 mg/kg orally BID. • Imatinib mesylate-treated Fbn1^Tsk+/− group received 50 mg/kg/day administered intraperitoneally (IP).\nTreatments with Compound JNKi-1 and control compound were started at Week 4. After 6 weeks of treatment, mice were sacrificed, and the antifibrotic effects from each treatment were analyzed.\nAntifibrotic effects were determined by measuring the dermal thickness and quantifying the numbers of myofibroblasts in the lesional skin. Dermal thickness was determined by measuring the distance from the epidermal/dermal border to the dermal/subdermal border in H & E-stained sections at four different sites. The number of myofibroblasts was quantified by staining for alpha smooth muscle actin (α-SMA) in paraffin-embedded sections. Data are expressed as mean±standard error of the mean (SEM). SPSS17.0 software and the Mann-Whitney-U-test were used for statistical analyses. A p-value of less than 0.05 was considered statistically significant."}, "[1]": {"system": "DBA/2J mice, bleomycin-induced skin fibrosis", "experiment": "Bleomycin-induced dermal fibrosis mouse model (preventive treatment)", "settings": "50 mg/kg/day IP, mean±SEM", "procedure": "The selective JNK inhibitor Compound JNKi-1 was tested in a bleomycin-induced dermal fibrosis mouse model, which is considered to represent the early and inflammatory stages of systemic sclerosis (Akhmetshina A, Venalis P, Dees C, Busch N, Zwerina J, Schett G, Distler O, Distler J H, Treatment with imatinib prevents fibrosis in different preclinical models of systemic sclerosis and induces regression of established fibrosis, Arthritis Rheum. 2009; 60(1):219-24). […] In animal models it will similarly induce injury and fibrosis at the site of delivery.\nMale and female DBA/2J mice were used. Mice were fed a standard diet with water ad libitum. The room temperature was kept constant at 22° C. with a humidity of 60%.\nCompound JNKi-1 was dissolved in 0.5% carboxymethylcellulose (CMC)/0.25% Tween 80 in water. Bleomycin was dissolved in 0.9% sodium chloride (NaCl) at a concentration of 0.5 mg/mL in a total volume of 100 μL. The positive control compound Imatinib mesylate was dissolved in 0.9% NaCl at a concentration of 50 mg/kg/day in a total volume of 100 μL.\nTwo different dose levels of the JNK-inhibitor Compound JNKi-1 (50 mg/kg and 150 mg/kg, administered twice daily) were used to analyze the anti-fibrotic activity in a mouse model of bleomycin-induced skin fibrosis. […] DBA/2J mice (n=5/sex/group) were assigned to one of five treatment groups: • Control group: 0.5% CMC/0.25% Tween 80 in water orally (PO) twice daily (BID) and subcutaneous injections of 100 μL 0.9% NaCl. • Untreated bleomycin group: intradermal injection of bleomycin and 0.5% CMC/0.25% Tween 80 in water orally BID. • 50 mg/kg Compound JNKi-1: intradermal injection of bleomycin and Compound JNKi-1 orally BID. • 150 mg/kg Compound JNKi-1: intradermal injection of bleomycin and Compound JNKi-1 orally BID. • Positive control group: intradermal injection of bleomycin and imatinib 50 mg/kg/day administered intraperitoneally (IP).\nLocalized dermal fibrosis was induced by injection of bleomycin every other day for 3 weeks in defined areas of the upper back. Compound JNKi-1 or imatinib was administrated starting from the first dose of bleomycin.\nThe dermal thickness was determined by staining with hematoxylin and eosin (H & E). The activated fibroblasts (myofibroblasts) at the fibrotic lesions were quantified by immunohistochemistry (IHC) for alpha smooth muscle actin (α-SMA). Collagen concentration in lesional skin was analyzed by hydroxyproline assay. Data are expressed as mean±standard error of the mean (SEM). SPSS17.0 software and the Mann-Whitney-U-test were used for statistical analyses. A p-value of less than 0.05 was considered statistically significant."}},
  "note": "Structures can show the parent of a compound that is named as a salt.",
  "data": [
    {"compound": "C[C@@H]1C[C@H]2[C@@H]3CCC4=CC(=O)C=C[C@]4(C)[C@@]3(F)[C@@H](O)C[C@]2(C)[C@@]1(O)C(=O)CO", "note": "[Dexamethasone, reference compound]", "values": [
      {"measurement": "loss of initial body weight mass", "setting": "CD-IGS rats", "result": "about 10%"},
      {"measurement": "wound gap remaining open at day 10 post wounding", "setting": "CD-IGS rats", "result": "approximately 70%"}
    ]},
    {"compound": "Cc1ccc(NC(=O)c2ccc(CN3CCN(C)CC3)cc2)cc1Nc1nccc(-c2cccnc2)n1", "note": "[imatinib mesylate, reference compound]", "values": [
      {"measurement": "decrease of number of myofibroblasts", "setting": "Tsk-1 mice", "result": "99%±15%"},
      {"measurement": "decrease of hypodermal thickness", "setting": "Tsk-1 mice; compared to untreated mice", "result": "71%±7%"}
    ]},
    {"compound": "Cc1ccc(NC(=O)c2ccc(CN3CCN(C)CC3)cc2)cc1Nc1nccc(-c2cccnc2)n1", "note": "[imatinib, reference compound]", "values": [
      {"measurement": "reduction in dermal thickening", "setting": "[1]; 3 weeks bleomycin", "result": "46%±5%"},
      {"measurement": "decrease of myofibroblast count", "setting": "[1]", "result": "51%±10%"}
    ]}
  ]
}
